Patent US12599648B2, “Pharmaceutical composition comprising a combination of a guanylate cyclase C (GUCY2C) agonist and a short-chain fatty acid or prodrug thereof” (priority 2020, dated 2026)
Bridge positions count the residues as written; N and C are the ends. Peptide text beside a SMILES is read from it.

Tests used:
[1] = cited from earlier work
[2] = test system: colonic tumors after AOM/DSS treatment; details: diet supplemented with tributyrin; Donohoe et al.; cited from earlier work
[3] = Caecum and colon weight and diarrhea observation in the AOM/DSS mouse trial; type: in vivo, wild type mice (BALB/c)
Excerpt: Thirty wild type mice (BALB/c) were maintained in individually ventilated cages (specific pathogen-free conditions) and divided in four age- and gender-matching groups at the age of 4 weeks. The schematic study set up of the mouse trial using AOM/DSS-based CRC mouse model is represented in FIG. 1.
Accordingly, group A received a semi-synthetic control diet (Hoevenaars F P M, van Schothorst E M, Horakova O, Voigt A, Rossmeisl M, Pico C, Caimari A, Kopecky J, Klaus S, Keijer J. BIOCLAIMS standard diet (BIOsd): a reference diet for nutritional physiology. Genes Nutr. 2012; 7:399-404), group B received a semi-synthetic diet with fiber-supplementation (containing about 46,2 g resistant starch type 2 per 1 kg diet), group C received a semi-synthetic control diet with linaclotide supplementation in drinking water (0.069 μg/mL; replaced every second day; dosage of linaclotide was calculated based on a previous study that applied 0.207 μg/day/mouse via oral gavage (Sharman S K, Islam B N, Hou Y, Singh N, Berger F G, Sridhar S, Yoo W, Browning D D. Cyclic-GMP-Elevating Agents Suppress Polyposis in ApcMin Mice by Targeting the Preneoplastic Epithelium. Cancer Prev Res (Phila Pa). 2018; 11:81-92.) and an assumed daily intake of 3 mL H2O per mouse; this mimics a daily intake of about 0.6 mg in a 70 kg healthy human, which is close to amounts used in previous clinical studies (Weinberg D S, Lin J E, Foster N R, Della'Zanna G, Umar A, Seisler D, Kraft W K, Kastenberg D M, Katz L C, Limburg P J, et al. Bioactivity of Oral Linaclotide in Human Colorectum for Cancer Chemoprevention. Cancer Prev Res Phila Pa. 2017; 10:345-54.)), group D received a combination of fiber-supplemented diet (containing about 46,2 g resistant starch type 2 per 1 kg diet), and linaclotide (0.069 μg/mL).
FIGS. 4 a) to d) represent graphs on the effect of butyrate acting as osmotic antagonist of linaclotide or GUCY2C signaling limiting the flow of H2O to the gut lumen. […] Single dots represent single mice; statistical analysis using One-way ANOVA with Kruskal-Wallis post-test, *=p<0.05. **=p<0.01.

[4] = in vivo; cited from earlier work

Structure (SMILES)	solubility in water [1]	tumor levels in the colon after AOM/DSS treatment [2]	caecum weight (indication of amounts of H2O in the gut lumen) ([3]; FIG. 4a)	colon weight (indication of amounts of H2O in the gut lumen) ([3]; FIG. 4b)	side effect diarrhea ([3]; at the administered linaclotide concentration (0.069 μg/mL drinking water))	people taking the drug who have diarrhea [4]
CCCC(=O)OCC(COC(=O)CCC)OC(=O)CCC [Tributyrin, 1,3-di(butanoyloxy)propan-2-yl butanoate]	only poorly soluble	lowest tumor levels	–	–	–	–
C[C@@H]1NC(=O)[C@@H]2CCCN2C(=O)[C@H](CC(N)=O)NC(=O)[C@@H]2CSSC[C@H](N)C(=O)N[C@H]3CSSC[C@H](NC1=O)C(=O)N[C@@H]([C@@H](C)O)C(=O)NCC(=O)N[C@H](C(=O)N[C@@H](Cc1ccc(O)cc1)C(=O)O)CSSC[C@H](NC(=O)[C@H](Cc1ccc(O)cc1)NC(=O)[C@H](CCC(=O)O)NC3=O)C(=O)N2 [linaclotide, Linaclotide] (H-CCEYCCNPACTGCY-OH; disulfide 1-6, 2-10, 5-13)	–	–	higher	higher	did not observe	More than 10%
